According to patent publication US20050214310A1 (priority 2004, published 2005):
Read-outs that look alike come from different tables or passages of the source.

System: H3677 melanoma cell line
Test: cells
Type: cell-based
[1] = read-out: IC50 (μM) with L49-βL

C-Mel Cyclobutyl Ester
IC50 (read-out: IC50 (μM) with βL): 0.8 µM
IC50 (read-out: IC50 (μM) without βL): 10 µM

C-Mel t-Butyl Ester
IC50 (read-out: IC50 (μM) with βL): 2.1 µM
IC50 (read-out: IC50 (μM) without βL): 32.3 µM

C-Mel Cyclohexyl Ester
IC50 [1]: 0.23 µM
IC50 (read-out: IC50 (μM) with βL): 0.083 µM
IC50 (read-out: IC50 (μM) without βL): 1.6 µM

Mel-phenethyl amide
IC50 (read-out: IC50): 0.97 µM

Melphalan Phenethyl Ester
IC50 (read-out: IC50): 0.17 µM

Melphalan Cyclooctyl Ester
IC50 (read-out: IC50): 5 µM

melphalan amide
IC50 (read-out: IC50): 0.64 µM

Melphalan (4-trans-t-butyl) cyclohexyl ester
IC50 (read-out: IC50): 3.6 µM

Mel-cyclohexyl amide
IC50 (read-out: IC50): 1.57 µM

Melphalan Cyclohexyl Ester
IC50 (read-out: IC50): 0.074 µM

Melphalan Cyclobutyl Ester
IC50 (read-out: IC50): 0.2 µM

N[C@@H](Cc1ccc(N(CCCl)CCCl)cc1)C(=O)O [melphalan, 4[bis(2 chloroethyl)amino]-L-phynelalanine, reference compound]
IC50 (Homo sapiens, H3677): 2.8 µM

Melphalan (4-cis-t-butyl) cyclohexyl ester [melphalan cis-4-t-butylcyclohexyl ester]
IC50 (read-out: IC50): 13 µM

Glutaryl C-Mel-L-Phe-NH2
IC50 (read-out: IC50 (μM) with βL): 0.05 µM
IC50 (read-out: IC50 (μM) without βL): 3.6 µM

Mel-L-Met amide
IC50 (read-out: IC50): 0.4 µM

Mel-propargylalanine-NH2
IC50 (read-out: IC50): 0.31 µM

Mel-L-homoPhe-NH2
IC50 (read-out: IC50): 0.09 µM

Mel-L-Glu(OMe)2 [Mel-L-Glu bis methyl ester]
IC50 (read-out: IC50): 1.89 µM

Glutaryl C-Mel Cyclohexyl Ester
IC50 [1]: 0.14 µM
IC50 (read-out: IC50 (μM) with βL): 0.087 µM
IC50 (read-out: IC50 (μM) without βL): 1.86 µM

melphalan anilide
IC50 (read-out: IC50): 1.2 µM

Mel-D-Glu(OMe)2 [Mel-D-Glu bis methyl ester]
IC50 (read-out: IC50): 3.95 µM

C-Mel Methyl Ester
IC50 (read-out: IC50 (μM) with βL): 0.0018 µM
IC50 (read-out: IC50 (μM) without βL): 0.65 µM

Melphalan (2-trifluoromethyl)phenethyl ester
IC50 (read-out: IC50): 3 µM

Glutaryl C-Mel-D-Phe-NH2
IC50 (read-out: IC50 (μM) with βL): 2.1 µM
IC50 (read-out: IC50 (μM) without βL): 30 µM

Mel-L-Phe cyclohexyl amide
IC50 (read-out: IC50): 0.015 µM

Melphalan Methyl Ester
IC50 (read-out: IC50): 0.054 µM

Melphalan t-Butyl Ester
IC50 (read-out: IC50): 3.34 µM

Mel-Gly-nitrophenyl amide
IC50 (read-out: IC50): 1.01 µM

Glutaryl C-Mel
IC50 [1]: 2.4 µM
IC50 (read-out: IC50 (μM) with βL): 1.4 µM
IC50 (read-out: IC50 (μM) without βL): 26.3 µM

Melphalan (4-n-propyl)phenethyl ester [melphalan (4-butyl)phenethyl ester]
IC50 (read-out: IC50): 4.6 µM

glutaryl C-Mel t-butyl ester
IC50 (read-out: IC50 (μM) with βL): 2.3 µM
IC50 (read-out: IC50 (μM) without βL): 25 µM
